Laboratory results reported in patent US12612403B2, “Nitrogen-containing heterocyclic derivative inhibitor, and preparation method therefor and use thereof” (SHANGHAI HANSOH BIOMEDICAL CO., LTD., priority 2024, dated 2026).

Assay: In vitro metabolic stability in human liver microsomes
Type: in vitro ADME
Conditions: pH 7.4
Protocol: 1. Experimental objective: The purpose of this experiment was to evaluate the metabolic stability of the compounds in phase I and partially phase II in mouse, rat and human liver microsomes, respectively.
2.1 Drug preparation: 10 mM stock solution of the compound of the present disclosure was prepared in DMSO (or other suitable solution) and stored in a −20° C. refrigerator for later use. The compound of the present disclosure was made in house.
2.2 Experimental steps • 1) Preparation of buffer: 4.01 mL of 1 M K2HPO4·3H2O (AR grade) and 0.99 mL of 1 M KH2PO4 (AR grade) were dissolved in ultrapure water and the volume was adjusted to 50 mL to prepare a phosphate buffer with a final concentration of 100 mM. • 2) Preparation of compound working solution: Preparation of compound working solution: 2 μL of the compound stock solution was added to 998 μL of phosphate buffer to a final concentration of 20 μM. According to the properties of the compound, the preparation proportions could be adjusted appropriately to adjust the final concentration. • 3) Preparation of liver microsome working solution: 156.3 μL of 20 mg/mL microsomes were diluted to 5 mL with 100 mM phosphate buffer, and the mixture was mixed well to reach a final concentration of 0.625 mg/mL. • 4) Preparation of NADPH and UDPGA: 33.3 mg of NADPH and 25.8 mg of UDPGA were weighed and added to 2 mL of 100 mM phosphate buffer to reach a final concentration of 20 mM. • 5) Preparation of pore-forming agent (Alamethicin): 1 mg of Alamethicin was weighed and added to 200 μL of methanol to prepare a 5 mg/mL solution. 10 μL of the solution was taken and added to 990 μL phosphate buffer (pH 7.4) to reach a final concentration of 50 μg/mL. • 6) Preparation of reaction stop solution: The internal standard was diluted with acetonitrile (or other suitable solution) to use as a stop solution and stored in a 2° C.-8° C. refrigerator. • 7) Incubation process: 400 μL of the prepared liver microsomes, 25 μL of the compound working solution (20 μM) and 25 μL of Alamethicin (50 μg/mL) were successively added to the 96-well plate, and the mixture was pre-incubated at 37° C. for 10 min. Then, 50 μL of prepared NADPH/UDPGA was added to start the reaction, and the mixture was incubated at 37° C. The total volume of the reaction system was 500 μL. The final contents of each component were as follows:
50 μL of samples were taken at 0, 5, 15, 30, 60 and 120 min, respectively, 200 μL of a cold stop solution containing the internal standard was added to stop the sample reaction, the mixture was centrifuged at 3500 rpm for 10 min, and the supernatant was taken and analyzed by LC-MS/MS.
Instruments: Shimadzu LC-20 AD; Chromatographic column: Phenomenex Gamin® C18 (50*4.6 mm, 5 μm particle size); mobile phase: A: 0.1% aqueous formic acid, B: acetonitrile; Elution gradient: 0.2-1.6 min, […], 3.0-3.1 min, 95% A to 5% A; Flow rate: 1.0 ml/min; Run time: 4.0 min; Injection volume: 5 μL.
Instruments: AP14000 liquid chromatography mass spectrometer, AB Sciex; Ion source: electrospray ionization source (ESI); Drying gas: N2, temperature 500° C.; Electrospray voltage: 5000 V; Detection mode: positive ion detection; Scanning mode: Reaction Monitoring (MRM) mode; Scanning time: 0.8401 s.
3. Data processing: The raw data were calculated according to the following formula: […]
The in vitro liver microsome intrinsic clearance rate (CLint) and liver intrinsic clearance rate (CLint,liver) were calculated by Ke.

## O=c1nc(O)ccn1-c1ccc(N[C@H]2CC[C@H](Nc3nc4cc(C(F)(F)F)ccn4n3)C2)nc1 [Example 78, 4-hydroxy-1-(6-(((1S,3S)-3-((7-(trifluoromethyl)-[1,2,4]triazolo[1,5-a]pyridin-2-yl)amino)cyclopentyl)amino)pyridin-3-yl)pyrimidin-2(1H)-one]
  half-life at 1 µM: 13.2 h
  microsomal CLint at 1 µM: 1.75 µL/min/mg

## O=C1c2ncccc2CN1c1cnc(N[C@H]2CC[C@H](Nc3nc4cc(OC(F)F)ccn4n3)C2)c(F)c1 [Example 151]
  half-life at 1 µM: 11.8 h
  microsomal CLint at 1 µM: 1.9 µL/min/mg

## O=c1nc(O)ccn1-c1cnc(N[C@H]2CC[C@H](Nc3nc4cc(C(F)(F)F)ccn4n3)C2)c(F)c1 [Example 183]
  half-life at 1 µM: 23 h
  microsomal CLint at 1 µM: 1 µL/min/mg
